Test results from US20250011265A1, “COMPOSITIONS AND METHODS FOR PRODUCTION OF ANTIMICROBIAL AGENTS FROM BIO-RENEWABLE FEEDSTOCKS” (SOLUGEN, INC., priority 2022, published 2025).
Converted amounts (≈) assume the structure as drawn.

Experiments:
[1] = tested on: General Wild Strain Bacteria (Pseudomonas aeruginosa and Enterobacter aggolomerans); experiment: Microtiter MIC study, general aerobic bacteria; assay type: cell-based
Experimental: (§1) All three different heat incubated GDA samples were tested as antimicrobial agents with several different industrially relevant bacteria. The General Aerobic Bacteria isolated and used for this testing were identified as Pseudomonas aeruginosa and Enterobacter aggolomerans. Wild strain Sulfate Reducing Bacteria and Acid Producing Bacteria isolated from the produced fluids was also used. They were placed in a microtiter plate, where a high throughput test can be performed to determine MIC (minimum inhibitor concentration). Samples were tested at the following doses (1000, 500, 250, 125, 62.5, 31.2, 15.6, 7.8, 3.9, and 1.95 ppm) and concentration was calculated based on the initial GDA concentration (15 w/v %).
(§2) The antimicrobial testing results shown in FIG. 13 summarizes the MIC of each sample for different bacteria. The MIC is determined after 24 hours of incubation for the bacterial plates.

[2] = tested on: SRB (Sulfate Reducing Bacteria); experiment: Microtiter MIC study, sulfate reducing bacteria; assay type: cell-based, Wild strain Sulfate Reducing Bacteria; conditions: 24 hours incubation; concentration based on initial GDA concentration (15 w/v %)
Experimental: as §1, §2

[3] = tested on: APB (Acid Producing Bacteria); experiment: Microtiter MIC study, acid producing bacteria; assay type: cell-based; conditions: 24 hours incubation; concentration based on initial GDA concentration (15 w/v %)
Experimental: as §1, §2

Row | MIC ([1]; Pseudomonas aeruginosa, 24 hours incubation, concentration based on initial GDA concentration (15 w/v %)) | MIC, SRB (Sulfate Reducing Bacteria) [2] | MIC [3] | Compound | antimicrobial activity ([1]; inferred from Sample C result, all three bacteria tested)
1 | 1000 µg/mL (≈ 9.99 mM) | 500 ppm | 500 µg/mL (≈ 4.99 mM) | O=CCCCC=O [Glutaraldehyde - 50%, Glutaraldehyde] | 
2 |  |  |  | Oc1ccc(O)c(O)c1O (single isomer, unassigned) [1,2,3,4-tetrahydroxybenzene] | good antimicrobial activity
